Series [1] in a line: Acute toxicity (LD50) on mice. As to conditions: mouse, in vivo, po.
Series [2] concerns spontaneous hypertensive rats (Wistar-Okamoto rats). Put plainly: Blood pressure lowering activity, systolic blood pressure of waking spontaneous hypertensive rats, oral. It counts as in vivo, rat. As to conditions: for change in vivo at 50 mg/kg / change in vivo at 1.25 mg/kg / change in vivo at 20 mg/kg: Rattus norvegicus, read-out: Reduction in blood pressure; for change in vivo at 50 mg/kg / change in vivo at 1.25 mg/kg / change in vivo at 20 mg/kg / Reduction in blood pressure: oral; for significant blood pressure lowering activity: ≥-15%; for change in vivo at 50 mg/kg / Reduction in blood pressure: 50 mg/kg. On the procedure: Blood pressure lowering activity of the new compounds according to the invention was tested on spontaneous hypertensive rats (Wistar-Okamoto rats) following the method described in Arzn. Forsch., 6, 222 (1956). Systolic blood pressure of waking animals was measured in arteria caudalis 4, 24, 48 and 72 hours after the oral administration of the test compounds.

Another series addresses T1, tyrosine-hydroxylase (Rattus norvegicus, UniProt P04177).
T1 construct: on rat adrenal homogenate; from tissue; host or cells: rat adrenal homogenate
Put plainly: In vitro tyrosine-hydroxylase inhibiting activity (TH) on rat adrenal homogenate. It counts as biochemical. As to conditions: read-out: Enzyme inhibiting activity, TH; for inhibition at 100 µM: 10^-4 mole/liter; for inhibition at 10 µM: 10^-5 mole/liter. Here is the method:
In vitro tyrosine-hydroxylase inhibiting activity (TH inhibiting activity) of the new compounds according to the invention was tested by the method of Nagatsu [Anal. Biochem., 9, 122 (1964)] on rat adrenal homogenate. Radioactive tyrosine was purified by the method elaborated by Ikeda [J. Biol. Chem., 241, 4452 (1966)]. TH activity of the rat adrenal homogenate amounted to […] nmoles/mg protein/60 min.
(§1) Inhibiting effect of several compounds encompassed by the formula I in comparison with some known compounds is listed in the following Table I.

The target in another series is T2, dopamine-β-hydroxylase (Bos taurus, UniProt P15101).
T2 construct: from tissue; host or cells: bovine adrenal (gland) preparations
T2 sequence (P15101 1-610): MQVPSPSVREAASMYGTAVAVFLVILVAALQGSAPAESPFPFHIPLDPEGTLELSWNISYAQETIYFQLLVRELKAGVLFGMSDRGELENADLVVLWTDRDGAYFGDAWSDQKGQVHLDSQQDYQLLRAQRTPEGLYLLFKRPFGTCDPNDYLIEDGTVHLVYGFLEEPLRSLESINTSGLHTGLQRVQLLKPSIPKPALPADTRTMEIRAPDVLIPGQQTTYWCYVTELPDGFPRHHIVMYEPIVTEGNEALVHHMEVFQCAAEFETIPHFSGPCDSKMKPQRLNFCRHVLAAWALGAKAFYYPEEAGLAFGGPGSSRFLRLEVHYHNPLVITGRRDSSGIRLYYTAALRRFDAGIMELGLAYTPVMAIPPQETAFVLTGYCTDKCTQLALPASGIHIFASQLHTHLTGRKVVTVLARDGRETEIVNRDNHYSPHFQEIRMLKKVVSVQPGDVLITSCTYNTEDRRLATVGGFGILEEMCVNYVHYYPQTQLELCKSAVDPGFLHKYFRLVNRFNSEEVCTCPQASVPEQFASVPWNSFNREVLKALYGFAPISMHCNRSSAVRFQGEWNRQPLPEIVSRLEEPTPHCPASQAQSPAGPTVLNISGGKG
Description: Dopamine-β-hydroxylase inhibiting activity (DBH) on bovine adrenal (gland) preparations. It is filed as biochemical. To be noted: read-out: Enzyme inhibiting activity, DBH; for inhibition at 100 µM: 10^-4 mole/liter; for inhibition at 10 µM: 10^-5 mole/liter. On the procedure:
Dopamine-β-hydroxylase inhibiting activity (DBH inhibiting activity) of the compounds according to the invention was tested on bovine adrenal (gland) preparations by a modified version of Nagatsu's method [B.B. Acta, 139 319 (1967)].
as §1

The next series concerns mice. Description: Acute toxicity (LD50) on mice. As to conditions: i.p.

Where two headings read alike, the source gives them in different places.

Usually LD50 stands for the dose at which mortality reaches 50%. Lower therefore signals a more toxic substance.

T1 sequence (P04177 whole entry): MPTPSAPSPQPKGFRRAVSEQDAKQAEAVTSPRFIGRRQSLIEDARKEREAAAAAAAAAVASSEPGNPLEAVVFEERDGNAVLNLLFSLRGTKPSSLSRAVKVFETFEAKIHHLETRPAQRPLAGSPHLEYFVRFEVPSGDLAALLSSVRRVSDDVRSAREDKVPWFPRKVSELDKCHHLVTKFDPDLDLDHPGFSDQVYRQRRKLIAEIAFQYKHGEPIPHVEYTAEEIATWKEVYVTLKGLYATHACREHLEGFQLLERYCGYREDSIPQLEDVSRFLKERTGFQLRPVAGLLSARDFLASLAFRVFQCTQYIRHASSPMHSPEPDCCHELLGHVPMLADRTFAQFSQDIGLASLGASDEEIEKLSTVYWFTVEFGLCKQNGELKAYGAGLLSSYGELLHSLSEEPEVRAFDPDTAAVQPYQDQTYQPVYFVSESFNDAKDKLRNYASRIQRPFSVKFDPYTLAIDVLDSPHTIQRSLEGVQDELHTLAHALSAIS

In series [1], `CCOC(=O)C1CCCCC1=NNc1ccc(Cl)nn1` (stereo not drawn) [Example 17, 2-(Ethoxycarbonyl)-1-cyclohexylidene-3-chloro-6-pyridazinylhydrazone] came in with a 50% lethal dose (LD50) of 300 mg/kg. The change in vivo at 50 mg/kg in series [2] (4 hours) is -23%; in series [2] (24 hours), -13%. For the same molecule, the “significant blood pressure lowering activity” value in series [2] is at least -15%. For the same molecule, the inhibition at 100 µM at tyrosine-hydroxylase turned out to be 85%; at dopamine-β-hydroxylase, 70%. In addition, the inhibition at 10 µM at tyrosine-hydroxylase worked out at 33%; at dopamine-β-hydroxylase, 10%.

Consider `O=C(O)C1CCCCC1=NNc1cccnn1` (stereo not drawn) [Example 19, 2-carboxy-1-cyclohexylidene-3-pyridazinylhydrazone], for which the LD50 in series [1] was above 200 mg/kg. Also, the figures for the change in vivo at 50 mg/kg in series [2] (4 hours) and in series [2] (24 hours) were -8% and -9%, respectively. The inhibition at 100 µM was 82% at tyrosine-hydroxylase and 75% on dopamine-β-hydroxylase. Besides, the results for the inhibition at 10 µM at tyrosine-hydroxylase and on dopamine-β-hydroxylase were 30% and 10%, respectively.

For the molecule `CCOC(=O)CC(C)=NNc1ccc(Cl)nn1` [Example 20, 3-(Ethoxycarbonyl)-2-propylidene-(3-chloro-6-pyridazinyl)hydrazone], the LD50 in series [1] was determined as 530 mg/kg. In addition, the change in vivo at 50 mg/kg in series [2] (4 hours) and in series [2] (24 hours) was -25% in each case. For the same molecule, the “significant blood pressure lowering activity” value in series [2] is reported as at least -15%. Also, the inhibition at 100 µM at tyrosine-hydroxylase and at dopamine-β-hydroxylase was 100% in each case. For the same molecule, the figures for the inhibition at 10 µM at tyrosine-hydroxylase and on dopamine-β-hydroxylase were 50% and 87%, respectively.

On to `CCCOC(=O)CC(C)=NNc1ccc(Cl)nn1` [Example 28, 3-(Propoxycarbonyl)-2-propylidene-3-chloro-6-pyridazinylhydrazone], for which, in series [1], the LD50 was above 200 mg/kg. Further, the change in vivo at 50 mg/kg in series [2] (4 hours) is -29%; in series [2] (24 hours) it was -25%. The “significant blood pressure lowering activity” value in series [2] was at least -15%. The inhibition at 100 µM at tyrosine-hydroxylase is 0%; at dopamine-β-hydroxylase it was 90%. Besides, the values for the inhibition at 10 µM on tyrosine-hydroxylase and at dopamine-β-hydroxylase were 0% and 71%, respectively.

On to `CC(CC(=O)OC(C)C)=NNc1ccc(Cl)nn1` [Example 29, 3-(Isopropoxycarbonyl)-2-propylidene-3-chloro-6-pyridazinylhydrazone], for which, in series [1], the LD50 came to 250 mg/kg. The results for the change in vivo at 50 mg/kg in series [2] (4 hours) and in series [2] (24 hours) were -30% and -15%, respectively. Also, the figures for the “duration of blood pressure lowering effect” value in series [2] (dose 20 mg/kg) and in series [2] (dose of 50 mg/kg) were 48 h and 72 h, respectively. For the same molecule, the “significant blood pressure lowering activity” value in series [2] is reported as at least -15%. Moreover, the inhibition at 100 µM came out at 50% on tyrosine-hydroxylase and 70% on dopamine-β-hydroxylase. Also, the inhibition at 10 µM on tyrosine-hydroxylase came to 0%; on dopamine-β-hydroxylase, 47%.

Take `CC(CC(=O)OC(C)(C)C)=NNc1ccc(Cl)nn1` [Example 30, 3-(tert.-Butoxycarbonyl)-2-propylidene-3-chloro-6-pyridazinylhydrazone]: the LD50 in series [1] was determined as 250 mg/kg. In addition, the values for the change in vivo at 50 mg/kg in series [2] (4 hours) and in series [2] (24 hours) were -31% and -14%, respectively. The “duration of blood pressure lowering effect” value in series [2] (dose 20 mg/kg) turned out to be 48 h; in series [2] (dose of 50 mg/kg), 72 h. Also, the “significant blood pressure lowering activity” value in series [2] is on record as at least -15%. The inhibition at 100 µM on tyrosine-hydroxylase is 50%; at dopamine-β-hydroxylase it was 70%. Besides, the inhibition at 10 µM at tyrosine-hydroxylase came to 0%; on dopamine-β-hydroxylase, 22%.

In series [1], `CC(CC(=O)OC(C)(C)C)=NNc1ccc(N2CCOCC2)nn1` [Example 52, 3-(tert.-Butoxycarbonyl)-2-propylidene-3-morpholino-6-pyridazinylhydrazone] registered an LD50 of 400 mg/kg. The change in vivo at 1.25 mg/kg was -21% in series [2] (4 hours) and -9% in series [2] (24 hours). Further, the “significant blood pressure lowering activity” value in series [2] is given as at least -15%. The inhibition at 100 µM amounted to 65% on tyrosine-hydroxylase and 30% on dopamine-β-hydroxylase. Moreover, the inhibition at 10 µM at tyrosine-hydroxylase stood at 40%; at dopamine-β-hydroxylase, 0%.

In series [1], `CC(CCC(=O)O)=NNc1ccc(C)nn1` [Example 55, 4-Carboxy-2-butylidene-(3-methyl-6-pyridazinyl) hydrazone] registered an LD50 above 200 mg/kg. The change in vivo at 20 mg/kg in series [2] (4 hours) was -39%. In addition, the change in vivo at 20 mg/kg in series [2] (24 hours) is -14%. Further, the “significant blood pressure lowering activity” value in series [2] is reported as at least -15%. On dopamine-β-hydroxylase, the inhibition at 100 µM was 50% and the inhibition at 10 µM stood at 0%.

For the molecule `CCOC(=O)CCC(C)=NNc1ccc(Cl)nn1` [Example 62, 4-(Ethoxycarbonyl)-2-butylidene-(3-chloro-6-pyridazinl)hydrazone], the 50% lethal dose (LD50) in series [1] was 200 mg/kg. Also, the change in vivo at 50 mg/kg in series [2] (4 hours) is -29%; in series [2] (24 hours), -26%. Further, the “significant blood pressure lowering activity” value in series [2] was at least -15%. The inhibition at 100 µM at dopamine-β-hydroxylase was 60%.

In series [1], `COC(=O)CC(=NNc1ccc(Cl)nn1)C(=O)OC` [Example 64, 1,2-di-(methoxycarbonyl)-ethylidene-(3-chloro-6-pyridazinyl)hydrazone] returned an LD50 above 200 mg/kg. Also, the change in vivo at 50 mg/kg was -25% in series [2] (4 hours) and -11% in series [2] (24 hours). The “significant blood pressure lowering activity” value in series [2] is listed as at least -15%. The figures for the inhibition at 100 µM on tyrosine-hydroxylase and on dopamine-β-hydroxylase were 36% and 50%, respectively. In addition, the inhibition at 10 µM at tyrosine-hydroxylase was 10%; on dopamine-β-hydroxylase it was 0%.

The molecule `CCOC(=O)CC=NNc1ccc(Cl)nn1` [Example 65, 2-(Ethoxycarbonyl)-1-ethylidene-(3-chloro-6-pyridazinyl)hydrazone] gave an LD50 in series [1] above 200 mg/kg. Moreover, in series [2] (4 hours), the change in vivo at 50 mg/kg is -18%. For the same molecule, the change in vivo at 50 mg/kg in series [2] (24 hours) is -23%. In addition, the “significant blood pressure lowering activity” value in series [2] was at least -15%. At dopamine-β-hydroxylase, the inhibition at 100 µM stood at 73% and the inhibition at 10 µM was found to be 44%.

In the case of Fumaric acid [reference compound], in the series on mice, the “Acute toxicity [LD50] on mice” value was 80 mg/kg. Further, the “Reduction in blood pressure” value is recorded as -33% in series [2] (4 hours) and 0% in series [2] (24 hours).

The values are drawn from patent publication US4259328A, “Morpholino pyridazinylhydrazones” (Richter Gedeon Vegyeszeti Gyar Rt, priority 1977, dated 1981).
